The values below are quoted from earlier work in US20240274231A1, “Method, System and Computer Program Product for Determining Peptide Immunogenicity” (MyNeo NV, priority 2020, published 2024).

Where two headings read alike, the source gives them in different places.

The subject of the series is CD8+ T cell responses. The following applies: stimulated IFN gamma ELISpot, peptide specific CD8+ T-cell responses among eleven evaluable breast cancer patients, vaccine plus poly-ICLC.

With “SLFRAVITK [MAGGE-A196-104, HLA-A3 MAGE-A196-104 vaccine peptide]”, the ELISpot was 1 borderline. For the setting “listed as MAGE-A196-104”, the ELISpot entry is on record as “borderline response”.
